We go through six compounds from patent US7521439B2, “Glucocorticoid receptor ligands for the treatment of metabolic disorders” (Karo Bio AB, priority 2002, dated 2009).

Structures are written as SMILES. pIC50: −log10 of the molar value. Read-outs that look alike come from different tables or passages of the source.

In series [1] the target is T1, Human glucocorticoid receptors (hGR) (Homo sapiens, UniProt P04150).
T1 construct: made in house; host or cells: Sf9 insect cells, baculovirus (BAC-TO-BAC)
T1 sequence (P04150 1-777): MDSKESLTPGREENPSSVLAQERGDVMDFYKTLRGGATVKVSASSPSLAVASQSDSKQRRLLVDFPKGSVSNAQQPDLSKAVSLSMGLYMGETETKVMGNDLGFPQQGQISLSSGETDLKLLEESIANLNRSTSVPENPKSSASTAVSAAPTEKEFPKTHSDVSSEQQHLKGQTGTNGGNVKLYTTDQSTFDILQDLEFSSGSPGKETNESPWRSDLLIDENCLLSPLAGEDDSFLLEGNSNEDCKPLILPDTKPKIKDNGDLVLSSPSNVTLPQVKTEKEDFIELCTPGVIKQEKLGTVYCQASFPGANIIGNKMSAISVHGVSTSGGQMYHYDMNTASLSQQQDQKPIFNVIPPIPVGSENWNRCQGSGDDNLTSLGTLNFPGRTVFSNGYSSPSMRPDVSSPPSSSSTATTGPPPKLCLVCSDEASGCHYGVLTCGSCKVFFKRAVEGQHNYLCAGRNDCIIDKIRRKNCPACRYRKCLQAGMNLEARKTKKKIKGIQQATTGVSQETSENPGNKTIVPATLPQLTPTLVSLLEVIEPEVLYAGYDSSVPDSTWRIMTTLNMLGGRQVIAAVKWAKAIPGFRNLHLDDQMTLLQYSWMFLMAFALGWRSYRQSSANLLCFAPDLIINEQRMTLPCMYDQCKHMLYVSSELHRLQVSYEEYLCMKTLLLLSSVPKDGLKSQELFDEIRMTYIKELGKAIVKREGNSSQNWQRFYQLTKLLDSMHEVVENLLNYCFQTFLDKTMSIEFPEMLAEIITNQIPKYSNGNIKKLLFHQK
As to the kind of experiment: Radioligand filter binding assay, displacement of 3(H)-dexamethasone from human glucocorticoid receptor. The text has this: Methods for Radioligand Binding Studies with Human Glucocorticoid and Progesterone Receptor Cytosol
Dexamethasone hereafter referred to as dex was purchased from SIGMA. […] Human glucocorticoid receptors were extracted from Sf9 cells infected with a recombinant baculovirus transfer vector containing the cloned hGR genes. Recombinant baculovirus was generated utilizing the BAC-TO-BAC expression system (Life Technologies) in accordance to instruction from the supplier. The hGR coding sequences were cloned into a baculovirus transfer vector by standard techniques. The recombinant baculoviruses expressing hGR were amplified and used to infect Sf9 cells. Infected cells were harvested 48 hrs post infection. […] The concentration of hGR in the extract was measured as specific ^3(H)-dex binding with the G25-assay as described in J. Steroid Biochem. Molec. […] The extract was aliquoted and stored at −70° C.
The filter binding assay: Dilution series of the test compounds and dexamethasone as reference were made from 10 mM (1 mM dex) stock solutions in DMSO. 10 μl of the dilutions was added in duplicates to the wells. The cell extracts were diluted 10 fold in EPMo+MTG buffer (1 mM EDTA, HPO4 20 mM (pH8), 6 mM MTG). […] 110μl of the diluted ^3(H)-dex were added to the wells. The final concentration of hGR in the experiment was estimated to 1 nM. All preparations were made in […] on ice and with +4° C. temperated buffers. The plates were incubated overnight at +4° C. (15-20 hrs.).
The incubation was stopped by filtration through GF/B filter on the Tomtec Cellharvester. The filtration on the Tomtec Cellharvester was programmed as follows: 1) Preparation before filtration with EP buffer (1 mM EDTA 20 mM HPO4 (pH8)) 2×(Wash/Asp 0.6 sec., Asp 0.5 sec.); 2) Prewet of GF/B filter with EP+PEI buffer (EP buffer, 0.3% Polyethylenimine) (Asp 0.8 sec.); 3) Filtration/harvesting of the 96-well incubation plate 3×(Wash/Asp 0.6 sec., Asp 0.5 sec.). The GF/B filter was dried for at least 1 hr at 65° C. A MeltiLex scintillation wax was melted onto the filter with the Microsealer. The filter was placed in a samplebag, which was thereafter trimmed with scissors to fit the filter cassette. The cassette were placed in the Microbeta and measured for 1 min/position, returning ccpm (corrected counts per minute).
The Microbeta-instrument generates the mean cpm (counts per minute) value/minute and corrects for individual variations between the detectors thus generating corrected cpm values.

Series [2] deals with T2, progesterone receptor (PR) (Homo sapiens, UniProt P06401).
T2 sequence (P06401 1-933): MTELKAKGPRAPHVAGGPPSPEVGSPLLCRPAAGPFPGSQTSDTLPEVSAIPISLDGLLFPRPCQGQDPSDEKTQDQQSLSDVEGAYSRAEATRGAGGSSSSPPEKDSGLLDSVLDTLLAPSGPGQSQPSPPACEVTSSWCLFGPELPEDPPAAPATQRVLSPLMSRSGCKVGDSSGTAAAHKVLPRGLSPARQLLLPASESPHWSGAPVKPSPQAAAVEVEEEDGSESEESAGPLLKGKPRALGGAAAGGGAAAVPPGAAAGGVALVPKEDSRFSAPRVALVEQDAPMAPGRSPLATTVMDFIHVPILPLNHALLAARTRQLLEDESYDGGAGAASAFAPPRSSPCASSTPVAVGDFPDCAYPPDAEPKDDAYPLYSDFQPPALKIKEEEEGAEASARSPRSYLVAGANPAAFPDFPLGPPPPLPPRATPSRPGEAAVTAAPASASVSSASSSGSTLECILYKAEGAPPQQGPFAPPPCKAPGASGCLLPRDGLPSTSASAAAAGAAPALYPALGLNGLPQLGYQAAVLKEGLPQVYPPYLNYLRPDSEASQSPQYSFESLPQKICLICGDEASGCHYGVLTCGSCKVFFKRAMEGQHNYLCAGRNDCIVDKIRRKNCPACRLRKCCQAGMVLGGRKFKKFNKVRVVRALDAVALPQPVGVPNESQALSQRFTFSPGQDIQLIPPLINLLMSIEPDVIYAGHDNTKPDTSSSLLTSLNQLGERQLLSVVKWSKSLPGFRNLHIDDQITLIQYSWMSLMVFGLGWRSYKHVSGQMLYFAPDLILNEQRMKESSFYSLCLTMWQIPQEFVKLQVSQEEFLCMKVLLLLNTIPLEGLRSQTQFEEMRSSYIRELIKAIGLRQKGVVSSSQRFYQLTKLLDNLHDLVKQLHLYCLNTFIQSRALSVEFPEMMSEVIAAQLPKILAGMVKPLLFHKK
Description: Radioligand binding assay for progesterone receptor (similar protocol). The settings on record: similar protocol to GR binding. The text has this:
Methods for Radioligand Binding Studies with Human Glucocorticoid and Progesterone Receptor Cytosol A similar protocol was employed to measure affinity of the compounds of the present invention for progesterone receptor (PR).

The test system of series [3] is GR-mediated responses. As to the kind of experiment: Rat prednisolone challenge model (hepatic TAT, hepatic glycogen, blood lymphocytes). It is filed as in vivo. As to conditions: for inhibition at 100 mg/kg: Rattus norvegicus, Lymphocyte, po, 100 mpk orally in rats, prednisolone challenge. The text has this: The analysis of both in vivo activity and liver selectivity may be accomplished using a single pharmacology study, involving a prednisolone challenge administered to rats.
Systemic glucocorticoid activity leads to an anti-inflammatory response, which is the result of a GR-linked suppression of lymphocytic activity.
Rat Prednisolone Challenge Model for Evaluation of Liver-Targeted Glucocorticoid Receptor Antagonists
Six hours following the prednisolone challenge, rats are euthanized with CO2, and bled via cardiac puncture for evaluation of blood lymphocytes and plasma drug levels. 7 mm liver biopsy punches are harvested for evaluation of tyrosine aminotransferase (TAT), hepatic glycogen and GR antagonist levels. Additional liver tissue, retroperitoneal fat, skeletal muscle, kidney and skin from an ear biopsy are also removed for isolation an evaluation of mRNA.

Series [4] deals with HPA axis. As to the kind of experiment: Mouse hypothalamic-pituitary-adrenal (HPA) activation model. It is filed as in vivo. The settings on record: for circulating level of ACTH / circulating level of corticosterone: oral dose, normal mice (FIG. 3). The text has this: Hypothalamic stimulation triggered by a suppressed systemic glucocorticoid leads to the secretion of adrenocorticotrophic hormone (ACTH) by the pituitary gland. ACTH acts on the adrenal gland to stimulate the production of endogenous glucorticoids like cortisol (in man) or corticosterone (in rodents). […] Analogs like Compound 1 may thus have an improved efficacy and safety profile for the treatment of metabolic diseases like diabetes and obesity.
Mouse Hypothalamic-Pituitary-Adrenal (HPA) Activation Model
Non-fasted CD-1 male mice, weighing approximately 25 g, are dosed with vehicle, RU-486 (30-100 mg/kg), or GR antagonist (30-100 mg/kg) at 0800 hr when corticosterone levels are low. Two hours later, mice are euthanized with CO2, bled by cardiac puncture, and plasma analyzed for corticosterone by mass spectroscopy and for adrenocorticotropic hormone (ACTH) levels by ELISA. Brains and plasma are also removed for analysis of GR antagonist levels.

Setting [5] is: read-out: Inhibition of GR-mediated responses: Glycogen.
Setting [6] is: read-out: Inhibition of GR-mediated responses: Lymphocytes.
Where [7] appears, read: read-out: Inhibition of GR-mediated responses: TAT.
Setting [8] is: 30 mpk orally, rat prednisolone challenge.
The mark [9] stands for this setting: rat prednisolone challenge, 100 mpk.
[10] abbreviates: 100 mpk, CD-1 male mice, two hours after dosing.
[11] abbreviates: 10 mpk prednisolone, normal rats, 7-hour experiment.

As for `CC#C[C@]1(O)CC[C@H]2[C@@H]3CCC4=CC(=O)CCC4=C3[C@@H](c3ccc(N(C)CCO[C@H]4CC[C@@]5(C)[C@@H](C4)C[C@@H](O)[C@@H]4[C@@H]5C[C@H](O)[C@]5(C)[C@@H]([C@H](C)CCC(=O)O)CC[C@@H]45)cc3)C[C@@]21C` [Example 1, (3β,5β,7α,12α)-7,12-Dihydroxy-3-{2-[{4-[17β-hydroxy-3-oxo-17α-prop-1-ynylestra-4,9-dien-11β-yl]phenyl}(methyl)amino]ethoxy}cholan-24-oic acid], the figures for the pIC50 in series [1] and in series [2] were 8.44 and 8.06, respectively. In addition, the values for the inhibition at 100 mg/kg in series [3] (setting [5]), in series [3] (setting [6]) and in series [3] (setting [7]) were 111%, 35% and 85%, respectively. Besides, in series [3] (rat prednisolone challenge, doses as in Table I), the “selectivity for hepatic GR vs. systemic effects” value is given as “liver-selective pharmacology”. In addition, in series [4] (mice, dose similar to RU-38486 (FIG. 3)), the “stimulation of the HPA axis” value is “fails to stimulate”. In series [4], the “circulating level of ACTH” value is “lack of change”. Besides, the “circulating level of corticosterone” value in series [4] was “lack of change”.
Regarding `CC#C[C@]1(O)CC[C@H]2[C@@H]3CCC4=CC(=O)CCC4=C3[C@@H](c3ccc(OCCO[C@H]4CC[C@@]5(C)C(C4)C[C@@H](O)[C@H]4[C@@H]6CC[C@H]([C@H](C)CCC(=O)O)[C@@]6(C)[C@@H](O)C[C@@H]45)c(C)c3)C[C@@]21C` (stereo partly drawn) [Example 2, (3β,7α,12α)-7,12-dihydroxy-3-(2-(4-(17β-hydroxy-3-oxo-17α-prop-1-ynylestra-4,9-dien-11β-yl)-2-methylphenoxy)ethoxy)cholan-24-oic acid], the pIC50 in series [1] is 8.55; in series [2], 8.64.
In the same order, the values of `CC#C[C@]1(O)CC[C@H]2[C@@H]3CCC4=CC(=O)CCC4=C3[C@@H](c3ccc(N(C)CCO[C@H]4CC[C@@]5(C)[C@@H](C4)C[C@@H](O)[C@@H]4[C@@H]5C[C@H](O)[C@]5(C)[C@@H]([C@H](C)CCC(=O)O)CC[C@@H]45)c(F)c3)C[C@@]21C` [Example 3, (3β,5β,7α,12α)-7,12-dihydroxy-3-{2-[{4-[17β-hydroxy-3-oxo-17α-prop-1-ynylestra-4,9-dien-11β-yl]-2-fluorophenyl}(methyl)amino]ethoxy}cholan-24-oic acid] are 8.70 and 8.35.
Turning to `CC#C[C@]1(O)[C@H](C)C[C@H]2[C@@H]3CCC4=CC(=O)CCC4=C3[C@@H](c3ccc(N(C)CCO[C@H]4CC[C@@]5(C)[C@@H](C4)C[C@@H](O)[C@@H]4[C@@H]5C[C@H](O)[C@]5(C)[C@@H]([C@H](C)CCC(=O)O)CC[C@@H]45)cc3)C[C@@]21C` [Example 4, (3β,5β,7α,12α)-7,12-Dihydroxy-3-{2-[{4-[17β-hydroxy-16α-methyl-3-oxo17α-prop-1-ynylestra-4,9-dien-11β-yl]phenyl}(methyl)amino]ethoxy}cholan-24-oic acid], the pIC50 in series [1] (3(H)-dex displacement, hGR extract from Sf9 cells, read-out: GR Binding (IC50)) was 8.48; in series [2], 8.80.
As to `CC#C[C@]1(O)CC[C@H]2[C@@H]3CCC4=CC(=O)CCC4=C3[C@@H](c3ccc(N(C)C)cc3)C[C@@]21C` [RU-38486], in series [3] (setting [8]), the “block of agonist effect on TAT induction” value is reported as “completely blocks”, the “block of lymphopenic response produced by prednisolone” value is “ability to block” and the “suppression of prednisolone-induced deposition of hepatic glycogen” value was “completely suppressed”. The inhibition at 100 mg/kg in series [3] (setting [5]) stood at 74%. In addition, the inhibition at 100 mg/kg in series [3] (setting [6]) was determined as 108%. Also, the inhibition at 100 mg/kg in series [3] (setting [7]) came to 100%. In series [3] (setting [9]), the “block of hepatic glucocorticoid responses to prednisolone (TAT, glycogen)” value is given as “completely antagonizes” and the “effect on systemic (peripheral) glucocorticoid response to prednisolone” value is on record as “completely antagonizes”. Also, in series [4] (setting [10]), the “ACTH level compared to vehicle controls” value is reported as “significantly increases” and the “corticosterone level compared to vehicle controls” value is on record as “significantly increases”. In addition, in series [4], the “circulating level of ACTH” value was “increases” and the “circulating level of corticosterone” value is given as “increases”.
As to `C[C@]12C=CC(=O)C=C1CC[C@@H]1[C@@H]2[C@@H](O)C[C@@]2(C)[C@H]1CC[C@]2(O)C(=O)CO` [prednisolone], the circulating lymphocyte levels entry in series [3] (10 mpk prednisolone, normal rats) is listed as “decrease”. In series [3] (setting [11]), the “increase in the deposition of hepatic glycogen” value is given as ~60% and the “induction of tyrosine aminotransferase (TAT)” value is on record as 3 fold.

As usually defined, the pIC50 is −log10 of the IC50, conventionally taken in molar units. One may read the inhibition as the drop in the measured response relative to a control, in per cent.
